Source: PubChem BioAssay (NCI)
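Interpolation was linear, between the two tested concentrations surrounding the appropriate level; five concentrations were tested over 48 hours in 96-well plates. The concentration for full growth arrest is given as TGI.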

How the values were obtained:
Assay in all cases: NCI tumour cell line growth inhibition, 48 h
786-0 renal = system: 786-0 renal
A498 renal = system: A498 renal
A549 NSCLC = system: A549 NSCLC
ACHN renal = system: ACHN renal
BT-549 breast = system: BT-549 breast
CAKI-1 renal = system: CAKI-1 renal
CCRF-CEM leukemia = system: CCRF-CEM leukemia
COLO 205 colon = system: COLO 205 colon
DU-145 prostate = system: DU-145 prostate
EKVX NSCLC = system: EKVX NSCLC
HCC-2998 colon = system: HCC-2998 colon
HCT-116 colon = system: HCT-116 colon
HCT-15 colon = system: HCT-15 colon
HOP-62 NSCLC = system: HOP-62 NSCLC
HOP-92 NSCLC = system: HOP-92 NSCLC
HS 578T breast = system: HS 578T breast
HT29 colon = system: HT29 colon
IGROV1 ovarian = system: IGROV1 ovarian
K-562 leukemia = system: K-562 leukemia
KM12 colon = system: KM12 colon
LOX IMVI melanoma = system: LOX IMVI melanoma
M14 melanoma = system: M14 melanoma
MALME-3M melanoma = system: MALME-3M melanoma
MCF7 breast = system: MCF7 breast
MDA-MB-231 breast = system: MDA-MB-231 breast
MDA-MB-435 = system: MDA-MB-435
MDA-N = system: MDA-N
MOLT-4 leukemia = system: MOLT-4 leukemia
NCI-H226 lung = system: NCI-H226 lung
NCI-H23 lung = system: NCI-H23 lung
NCI-H460 lung = system: NCI-H460 lung
NCI-H522 lung = system: NCI-H522 lung
NCI/ADR-RES ovarian = system: NCI/ADR-RES ovarian
OVCAR-3 ovarian = system: OVCAR-3 ovarian
OVCAR-4 ovarian = system: OVCAR-4 ovarian
OVCAR-5 ovarian = system: OVCAR-5 ovarian
OVCAR-8 ovarian = system: OVCAR-8 ovarian
PC-3 prostate = system: PC-3 prostate
RPMI-8226 leukemia = system: RPMI-8226 leukemia
RXF 393 renal = system: RXF 393 renal
SF-268 CNS = system: SF-268 CNS
SF-295 CNS = system: SF-295 CNS
SF-539 CNS = system: SF-539 CNS
SK-MEL-2 melanoma = system: SK-MEL-2 melanoma
SK-MEL-28 melanoma = system: SK-MEL-28 melanoma
SK-MEL-5 melanoma = system: SK-MEL-5 melanoma
SK-OV-3 ovarian = system: SK-OV-3 ovarian
SN12C renal = system: SN12C renal
SNB-19 CNS = system: SNB-19 CNS
SNB-75 CNS = system: SNB-75 CNS
SR leukemia = system: SR leukemia
SW-620 colon = system: SW-620 colon
T-47D breast = system: T-47D breast
TK-10 renal = system: TK-10 renal
U251 CNS = system: U251 CNS
UACC-257 melanoma = system: UACC-257 melanoma
UACC-62 melanoma = system: UACC-62 melanoma
UO-31 renal = system: UO-31 renal
HL-60(TB) leukemia = system: HL-60(TB) leukemia

Measured: TGI

O=C(O)Cc1cccnc1
not listed: HL-60(TB) leukemia
> 100 µM: all other assays above

Nc1ncnc2oc(C3OC(COC(=O)c4ccccc4)C(OC(=O)c4ccccc4)C3OC(=O)c3ccccc3)nc12 (stereo not given)
82.6 µM: A498 renal
not listed: SK-MEL-2 melanoma
> 100 µM: all other assays above

CC1(C)CC[C@]2(C)CC[C@]3(C)C(=CC[C@@H]4[C@@]5(C)CCC(=O)C(C)(C)[C@@H]5[C@H](O)C[C@]43C)[C@@H]2C1
39.7 µM: MDA-MB-435
31.6 µM: MALME-3M melanoma
35.4 µM: BT-549 breast
29.7 µM: MDA-N
32.8 µM: LOX IMVI melanoma
33.7 µM: CAKI-1 renal
34.3 µM: OVCAR-8 ovarian
29.4 µM: UACC-62 melanoma
31 µM: A498 renal | OVCAR-3 ovarian
29.5 µM: SN12C renal
39.3 µM: HCT-15 colon
31.1 µM: RXF 393 renal
31.8 µM: HT29 colon
37.7 µM: T-47D breast
33.9 µM: NCI-H460 lung
30 µM: SK-MEL-2 melanoma
35.3 µM: NCI-H23 lung
34.7 µM: OVCAR-4 ovarian
30.7 µM: OVCAR-5 ovarian
40.7 µM: M14 melanoma
36.8 µM: HS 578T breast
34.8 µM: SK-MEL-28 melanoma
37.9 µM: KM12 colon
30.6 µM: ACHN renal | SNB-19 CNS
28.9 µM: HCC-2998 colon
32.1 µM: IGROV1 ovarian | SF-539 CNS
> 100 µM: CCRF-CEM leukemia | HL-60(TB) leukemia | MOLT-4 leukemia
34.4 µM: DU-145 prostate
31.5 µM: HOP-62 NSCLC | SK-MEL-5 melanoma
30.1 µM: TK-10 renal
32.4 µM: EKVX NSCLC
23.7 µM: MDA-MB-231 breast
42.2 µM: SW-620 colon
32 µM: COLO 205 colon | SF-268 CNS
38.6 µM: NCI/ADR-RES ovarian
35.1 µM: MCF7 breast
31.9 µM: NCI-H522 lung
53.2 µM: RPMI-8226 leukemia
30.5 µM: HCT-116 colon | U251 CNS
30.9 µM: 786-0 renal | PC-3 prostate
31.7 µM: HOP-92 NSCLC | SK-OV-3 ovarian
32.3 µM: SF-295 CNS | UACC-257 melanoma
54.3 µM: A549 NSCLC
